The source of these data is PMC6107187, “A novel homodimer laccase from Cerrena unicolor BBP6: Purification, characterization, and potential in dye decolorization and denim bleaching” (PLoS ONE, 2018).

Assay [1] concerns LacA. Briefly: oxidation monitored at […] nm, Lineweaver-Burk. It is filed as biochemical, Cerrena unicolor. The conditions noted are these: optimal pH 4.0 and temperature 80°C; 0.5–5 mM guaiacol; apparent Km.
The subject of assay [2] is LacA. The conditions noted are these: optimal pH 2.5 and temperature 60°C; 5–100 μM ABTS; apparent Km.
Assay [3] concerns the target Cerrena unicolor BBP6 laccase (LacA) (Cerrena unicolor BBP6). Briefly: SEC; Superdex 200 Increase 10/300 GL, 10 mM phosphate buffer-140 mM NaCl (pH 7.4), 0.5 mL min^-1, room temperature; native mass compared with the subunit mass from SDS-PAGE.
Assay [4] deals with LacA. Put plainly: oxidation monitored at […] nm, Lineweaver-Burk. It counts as biochemical, Cerrena unicolor. The conditions noted are these: optimal pH 5.5 and temperature 80°C; 0.5–10 mM 2,6-DMP; apparent Km.

Read-outs that look alike come from different tables or passages of the source.

Consider `COc1ccccc1O` [guaiacol], for which, in the assay with LacA [1], the Michaelis-Menten constant (Km) amounted to 1240 µM.
Regarding `CCn1c(=NN=c2sc3cc(S(=O)(=O)O)ccc3n2CC)sc2cc(S(=O)(=O)O)ccc21` [ABTS], the Michaelis-Menten constant (Km) in the assay on LacA [2] worked out at 49.1 µM.
In assay [3], “Cerrena unicolor BBP6 laccase (LacA) (enzyme)” showed a stoichiometry N of 2.
On to `COc1cccc(OC)c1O` [2,6-DMP], for which the Km in the assay with LacA [4] was 3430 µM.
